Among the data in PubChem BioAssay (NCI) are TGI values, retold here.

Some test systems named below: SW-620 colon; UO-31 renal; HCT-116 colon; MALME-3M melanoma; NCI-H226 lung; SF-268 CNS; KM12 colon; SK-MEL-28 melanoma; EKVX NSCLC; SF-295 CNS; NCI-H522 lung; A498 renal; SK-MEL-2 melanoma; RXF 393 renal; HOP-62 NSCLC; OVCAR-4 ovarian; MDA-N; 786-0 renal; CAKI-1 renal; DU-145 prostate.
What all share (experiment): NCI anticancer screen, dose series, 48 h

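A five-concentration, 48-hour dose response in 96-well plates underlies each endpoint, interpolated linearly between surrounding concentrations. The concentration for full growth arrest is given as TGI.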

On to `COc1cccc2nc3c(C(=O)NCCN(C)C)cccc3cc12`, for which the TGI with SW-620 colon is 4.83 µM; with UO-31 renal, 2.99 µM; in the assay with HCT-116 colon, 14.9 µM; in the assay with MALME-3M melanoma, 4.4 µM; in the assay on NCI-H226 lung, 4.15 µM; with SF-268 CNS it was 15.5 µM. Moreover, the TGI in the assay on KM12 colon turned out to be 13.6 µM; in the assay with SK-MEL-28 melanoma, 9.85 µM; in the assay with EKVX NSCLC, 9.64 µM; with SF-295 CNS, 10.8 µM; with NCI-H522 lung, 3.42 µM; with A498 renal, 2.98 µM. Besides, the TGI with SK-MEL-2 melanoma came to 12.7 µM; with RXF 393 renal, 9.74 µM; with HOP-62 NSCLC, 7.1 µM; in the assay on OVCAR-4 ovarian, 4.8 µM; in the assay with MDA-N it was 8.42 µM; with 786-0 renal it was 12.5 µM. Moreover, the TGI was 4.18 µM with CAKI-1 renal and 14.4 µM in the assay with DU-145 prostate.
Turning to `O=C1C=C(NCCOCCO)C(=O)c2c(O)ccc(O)c21`, the TGI in the assay with SW-620 colon was 33.1 µM; in the assay with UO-31 renal it was more than 100 µM; in the assay with HCT-116 colon, 55 µM; with MALME-3M melanoma, 24.2 µM; in the assay on NCI-H226 lung it was more than 100 µM; in the assay on SF-268 CNS, more than 100 µM. Also, the TGI was more than 100 µM in the assay on KM12 colon; more than 100 µM with SK-MEL-28 melanoma; more than 100 µM in the assay on SF-295 CNS; 47.1 µM with NCI-H522 lung; more than 100 µM with A498 renal; 51.9 µM in the assay on SK-MEL-2 melanoma. The TGI with RXF 393 renal was more than 100 µM; with HOP-62 NSCLC, more than 100 µM; with OVCAR-4 ovarian, 33.4 µM; in the assay with MDA-N, 31.3 µM; with 786-0 renal it was more than 100 µM; in the assay with CAKI-1 renal, more than 100 µM. Moreover, the TGI in the assay with DU-145 prostate was more than 100 µM.
For the compound `COc1ccc(/C=C2\c3cc(OC)c(OC)cc3CCN2C(=O)c2ccccc2)cc1OC`, the TGI is more than 100 µM in the assay on SW-620 colon; more than 100 µM in the assay on UO-31 renal; more than 100 µM in the assay on HCT-116 colon; 71.1 µM with MALME-3M melanoma; more than 100 µM in the assay with NCI-H226 lung; more than 100 µM with SF-268 CNS. The TGI in the assay with KM12 colon was more than 100 µM; in the assay on SK-MEL-28 melanoma it was more than 100 µM; in the assay on EKVX NSCLC it was more than 100 µM; in the assay on SF-295 CNS, more than 100 µM; in the assay on NCI-H522 lung, 45.4 µM; in the assay on A498 renal, more than 100 µM. The TGI in the assay with SK-MEL-2 melanoma was more than 100 µM; in the assay with RXF 393 renal, more than 100 µM; in the assay on HOP-62 NSCLC it was more than 100 µM; in the assay on MDA-N, 65.2 µM; in the assay with 786-0 renal, more than 100 µM; in the assay with CAKI-1 renal, more than 100 µM. The compound further gave a TGI in the assay with DU-145 prostate of more than 100 µM.
As to `CCCC(=O)N1CCN(c2ccc3c(c2)OC(C)O3)CC1` (configuration not stated), the TGI in the assay with SW-620 colon, in the assay on UO-31 renal, in the assay with HCT-116 colon, with MALME-3M melanoma, in the assay on NCI-H226 lung and in the assay on SF-268 CNS was more than 100 µM in each case. The TGI with KM12 colon, in the assay on SK-MEL-28 melanoma, in the assay with EKVX NSCLC, in the assay on SF-295 CNS, in the assay on NCI-H522 lung and with A498 renal was more than 100 µM each time. The TGI in the assay with RXF 393 renal, in the assay with HOP-62 NSCLC, with OVCAR-4 ovarian, with MDA-N, in the assay with 786-0 renal and with CAKI-1 renal was more than 100 µM each time. In the assay with DU-145 prostate, this compound came in with a TGI of more than 100 µM.
`CC(=O)NC1=N/C(=C\c2ccc(Cl)cc2)C(=O)N1/C=C1\C(=O)Oc2ccccc2C1=O`: the TGI in the assay with SW-620 colon, in the assay with HCT-116 colon, with MALME-3M melanoma, in the assay with NCI-H226 lung, in the assay on SF-268 CNS and with KM12 colon was more than 100 µM in each case. Further, the TGI is more than 100 µM in the assay on SK-MEL-28 melanoma; more than 100 µM with EKVX NSCLC; more than 100 µM with SF-295 CNS; more than 100 µM with NCI-H522 lung; 57.8 µM in the assay on A498 renal; more than 100 µM with SK-MEL-2 melanoma. Moreover, the TGI with RXF 393 renal, in the assay on HOP-62 NSCLC, in the assay with OVCAR-4 ovarian, in the assay on MDA-N, with 786-0 renal and in the assay with CAKI-1 renal was more than 100 µM in each case. This compound came in with a TGI with DU-145 prostate of more than 100 µM.
With `CC1(C)OC[C@@H]([C@H](O)C2C=CC(=O)S2)O1` (some centres not stated), the TGI is 98.6 µM with SW-620 colon; 50 µM in the assay with UO-31 renal; 27.3 µM with HCT-116 colon; 43.1 µM with MALME-3M melanoma; more than 100 µM in the assay with NCI-H226 lung; 38.8 µM with SF-268 CNS. Moreover, the TGI in the assay on KM12 colon was 30.1 µM; with EKVX NSCLC, more than 100 µM; in the assay with SF-295 CNS, more than 100 µM; in the assay with A498 renal it was 51.1 µM; in the assay with SK-MEL-2 melanoma, 77.1 µM; with RXF 393 renal, 53.5 µM. Also, the TGI in the assay on HOP-62 NSCLC was more than 100 µM; in the assay on OVCAR-4 ovarian, more than 100 µM; with MDA-N, more than 100 µM; in the assay on 786-0 renal, 59.3 µM; with CAKI-1 renal, 72.4 µM; in the assay on DU-145 prostate it was 56.6 µM.
For `CCOC(=O)c1sc2c(c1OC(=O)c1ccc(OC)cc1)c(=O)n(-c1ccccc1)c(=S)n2-c1ccccc1`, the TGI was more than 100 µM in the assay on SW-620 colon; more than 100 µM in the assay with HCT-116 colon; more than 100 µM in the assay with MALME-3M melanoma; 73 µM with NCI-H226 lung; more than 100 µM with SF-268 CNS; more than 100 µM in the assay with KM12 colon. The TGI with SK-MEL-28 melanoma is more than 100 µM; in the assay on EKVX NSCLC, more than 100 µM; with SF-295 CNS, more than 100 µM; in the assay with NCI-H522 lung, 23 µM; in the assay with A498 renal, 41.4 µM; with RXF 393 renal it was more than 100 µM. Further, the TGI was more than 100 µM in the assay on HOP-62 NSCLC; 24.6 µM with OVCAR-4 ovarian; more than 100 µM in the assay with MDA-N; more than 100 µM with 786-0 renal; more than 100 µM in the assay with CAKI-1 renal; more than 100 µM in the assay with DU-145 prostate.
